From patent publication US7166695B2, “Affinity markers for human serum albumin” (ConjuChem Biotechnologies Inc., priority 1997, dated 2007)
Where a SMILES comes first, the peptide text is derived from it. [ ]: non-standard residue; d: D form. The star is where a group is joined. X1 = O=C1N[C@H]2[C@H](CS[C@H]2CCCCC(=O)Oc2ccc(C(=O)*)cc2)N1; Benzoyl(4-OH) = O=C(c1ccc(O)cc1)*

Assays:
[1] = molecular target: T1, HSA (Homo sapiens, UniProt P02768); test: Mass spectral analysis of tryptic digest of HSA:LC-biotin; details: HPLC peaks at 78 and 85 min
Method: LC-biotin is biotin-NH—(CH2)5—C(O)—.
The specificity with which biotin-OPh-CO-FlYEE-NH2 reacts with a specific lysine residue on HSA was determined by mass spectral analysis of a tryptic digest of LC-biotin conjugated to HSA by LC-biotin-OPh-CO-FlYEE-NH2 (FIG. 15). Using LC -biotin-OPh-CO-FlYEE-NH2 instead of biotin-OPh-CO-FlYEE-NH2 facilitated a larger mass separation in the mass spectrum and identification of HSA from HSA:LC-biotin. […] This mass accounts only for the addition of one LC-biotin and since the fragment at 78 min contains only one Lys residue and LC-biotin is attached to it, and this peptide sequence contains the previous sequence, the only lysine residue in this sequence where biotin could be attached is Lys519.

[2] = molecular target: T2, fraction V HSA (Homo sapiens, UniProt P02768); test: Competition ELISA test; assay type: binding
T2 construct: purchased Calbiochem
Method: A solution of 100 μL rabbit polyclonal anti-human serum albumin. (Boehringer) diluted at 1/5000 in PBS was coated overnight at 4° C. onto ELISA plates (Nunc). These plates were then saturated with 5% BSA (Sigma) in PBS for 2 h at RT. For the competition test, varying concentrations of HO-Ph-CO-FlYEE-NH2, 44 μM biotin-OPh-CO-FlYEE-NH2, and 15 μM of fraction V HSA were incubated for 1 h at 37° C. To assess the ability of biotin-OPh-CO-FlYEE-NH2 to displace HO-Ph-CO-FlYEE-NH2, varying concentrations of HO-Ph-CO-FlYEE-NH2 were incubated with HSA for 1 h at 37° C., then 44 μM of biotin-OPh-CO-FlYEE-NH2 was added and allowed to incubate at 37° C. for 1 h. The reaction mixtures were then centrifuged through 30 kDa Centricon tubes (Sarthorious) to a volume of 50 μL, diluted with 500 μL of PBS, then re-concentrated to 50 μL. This process was then repeated and transferred to the ELISA plate previously coated with polyclonal anti-human serum albumin (procedure described above). These plates were then rinsed with PBS-Tween 20 (0.05%) three times, then with PBS. Peroxidase-labeled streptavidin (1:500, v/v, in PBS containing 0.05% BSA) was then added to the plates, allowed to incubate for 20 min at RT, rinsed with PBS-Tween 20 (0.05%) three times, and then with PBS. […] The plates were then read on a SpectraMax 250 at λ 490 nm.
FIG. 8 plots optical density as a function of the concentration of HO-Ph-CO-FlYEE-NH2. […] The HSA was captured on an ELISA plate initially coated with polyclonal anti-HSA, treated with peroxidase labeled streptavidin and OD read at 490 nm using SpectraMax 250.
In these experiments, solutions of 0 to 50 molar excess HO-Ph-CO-FlYEE-NH2 and 15 μM fraction V HSA were incubated for 1 h at RT when 44 μM of biotin-OPh-CO-FlYEE-NH2, was added and reaction incubated for 1 h at 37° C. The HSA was captured on an ELISA plate initially coated with polyclonal anti-HSA, treated with peroxidase labeled streptavidin and OD read at 490 nm using SpectraMax 250.

[3] = molecular target: T3, pig albumin (Sus scrofa, UniProt P08835); test: Biotinylation of whole blood; SDS-PAGE and immunoblot with peroxidase labeled streptavidin; assay type: biochemical; details: samples of whole blood
T3 construct: Whole blood was incubated with biotin ester for 1 h at room temperature, then plasma was extracted by centrifugation; from tissue; host or cells: pig whole blood

[4] = molecular target: T4, dog albumin (Canis lupus familiaris, UniProt P49822); test: as above; assay type: biochemical; details: samples of whole blood
T4 construct: Whole blood was incubated with biotin ester for 1 h at room temperature, then plasma was extracted by centrifugation; from tissue; host or cells: dog whole blood

[5] = molecular target: T1, HSA; test: Kinetic study by ELISA capture in human plasma; assay type: biochemical; details: 100 μM in human plasma, RT, 0-60 min
Method: The samples were then allowed to incubate at RT for 0, 5, 10, 15, 30 and 60 min, when 5 μL of each sample was diluted with 295 μL PBS and kept at −20° C. before use. The samples were then diluted to 2 μg/mL using PBS and transferred to an ELISA plate previously coated with polyclonal anti-human serum albumin (procedure described above). The plates were then rinsed with PBS-Tween 20 (0.05%) three times, and then with PBS. Goat polyclonal anti-biotin (Pierce) (1:200, v/v, in PBS containing 0.05% BSA) was then added to the plates, allowed to incubate for 1 h at RT, rinsed with PBS-Tween 20 (0.05%) three times, and then with PBS. The plates were then treated with 100 μL of peroxidase-conjugated rabbit anti-goat IgG (Jackson Immuno Research) diluted 1/100,000 with PBS for 20 min at RT. The plates were then rinsed with PBS-Tween 20 (0.05%) three times, and then with PBS. […] The plates were then read on a SpectraMax 250 at λ 490 nm.
At each time mentioned in the figure, 2 μg/mL of each sample was captured on an ELISA plate initially coated with polyclonal anti-HSA, treated with goat polyclonal anti-biotin, followed by peroxidase conjugated rabbit anti-goat IgG and OD read at 490 nm using SpectraMax 250.

[6] = molecular target: T2, fraction V HSA; test: Kinetic studies using HPLC, reaction with fraction V HSA in PBS; assay type: biochemical; details: 100 μM compound and 600 μM HSA in PBS
Description: (§1) The chromatograms were each integrated using identical data parameters and resulting calculated areas under each peak converted to concentrations and plotted against time.
FIG. 11 plots the rate of disappearance of biotin-OPh-CO—NH2 vs. time and the rate of appearance of the leaving group, HO-Ph-CO—NH2, vs. time.
Due to overlapping peaks in the HPLC chromatogram, the rate of disappearance of biotin-OPh-CO-FlYEE-NH2 cannot be determined.

[7] = tested on: commercial human plasma; test: Kinetic studies using HPLC, reaction in commercial human plasma; assay type: biochemical; details: 100 μM in commercial human plasma
Method: as §1
FIG. 12 plots the rate of appearance of the leaving group, HO-Ph-CO-FlYEE-NH2, vs. time (seconds) as a result of the reaction of 100 μM biotin-OPh-CO-FlYEE-NH2 in commercial human plasma. Due to overlapping peaks in the HPLC chromatogram, the rate of disappearance of biotin-OPh-CO-FlYEE-NH2 cannot be determined.

[8] = Hydrolysis in PBS followed by HPLC; assay type: physicochemical; details: pH 7.4, RT (FIG. 13), read-out: half-life of hydrolysis of the phenol ester (converted)
Description: as §1

[9] = molecular target: human serum albumin (HSA) (Homo sapiens, UniProt P02768); test: Biotinylation of whole blood, plasma or serum; SDS-PAGE and immunoblot with peroxidase labeled streptavidin; details: 100 or 600 μM, 1 h at 37° C.
Method: The reaction samples were allowed to incubate for 1 h at RT or 37° C. For the whole blood sample, the plasma was extracted from whole blood at the end of reaction. […] These additional samples were diluted 1/60 in PBS and analyzed directly on SDS-PAGE, immunoblot, ELISA, or frozen at −20° C. until use. As positive controls, 50 μM of NHS-LC-biotin (Pierce) and 100 μM of D-biotin were used. Protein assay was performed using BCA kit (Pierce).
Proteins were separated by SDS-PAGE under non-reducing conditions (Laemmli, 1970), transferred to 0.1 μM-pore nitrocellulose sheets (Schleicher and Schuell) and probed with peroxidase labeled streptavidin (Jackson Immuno Research).
Whole blood was incubated with biotin ester for 1 h at room temperature, then plasma was extracted by centrifugation. A 5 μg sample was separated by 8% SDS-PAGE and transferred onto blot. The immunoblot was blocked with 5% skim milk (Nestle) and then incubated with peroxidase labeled-streptavidin diluted at 1/5000 in PBS-BSA 0.5% for 20 min at RT. An ECL kit was used to detect peroxidase labeled-streptavidin on Hyperfilm ECL (Amersham), exposed for 1 min.
A 5 μg portion of each sample was separated by 8% SDS-PAGE and transferred onto blot. The immunoblot was blocked with 5% skim milk (Nestle) and then incubated with peroxidase labeled-streptavidin diluted at 1/5000 in PBS-BSA 0.5% for 20 min at RT. […]

T3 sequence (P08835 25-607): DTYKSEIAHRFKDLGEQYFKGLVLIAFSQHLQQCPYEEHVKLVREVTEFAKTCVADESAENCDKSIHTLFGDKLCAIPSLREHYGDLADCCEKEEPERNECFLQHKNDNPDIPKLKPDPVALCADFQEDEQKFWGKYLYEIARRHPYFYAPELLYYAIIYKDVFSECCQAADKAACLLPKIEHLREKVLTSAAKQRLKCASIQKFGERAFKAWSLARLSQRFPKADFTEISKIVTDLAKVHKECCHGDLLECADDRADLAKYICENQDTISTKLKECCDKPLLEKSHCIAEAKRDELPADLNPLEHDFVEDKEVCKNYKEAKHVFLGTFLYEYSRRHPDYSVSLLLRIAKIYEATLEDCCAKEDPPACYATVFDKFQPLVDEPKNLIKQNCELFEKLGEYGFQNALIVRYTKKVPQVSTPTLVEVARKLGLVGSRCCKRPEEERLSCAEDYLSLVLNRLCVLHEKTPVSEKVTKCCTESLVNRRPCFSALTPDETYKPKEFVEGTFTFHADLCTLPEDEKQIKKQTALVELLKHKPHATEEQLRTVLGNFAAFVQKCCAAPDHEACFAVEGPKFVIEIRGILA
T4 sequence (P49822 25-608): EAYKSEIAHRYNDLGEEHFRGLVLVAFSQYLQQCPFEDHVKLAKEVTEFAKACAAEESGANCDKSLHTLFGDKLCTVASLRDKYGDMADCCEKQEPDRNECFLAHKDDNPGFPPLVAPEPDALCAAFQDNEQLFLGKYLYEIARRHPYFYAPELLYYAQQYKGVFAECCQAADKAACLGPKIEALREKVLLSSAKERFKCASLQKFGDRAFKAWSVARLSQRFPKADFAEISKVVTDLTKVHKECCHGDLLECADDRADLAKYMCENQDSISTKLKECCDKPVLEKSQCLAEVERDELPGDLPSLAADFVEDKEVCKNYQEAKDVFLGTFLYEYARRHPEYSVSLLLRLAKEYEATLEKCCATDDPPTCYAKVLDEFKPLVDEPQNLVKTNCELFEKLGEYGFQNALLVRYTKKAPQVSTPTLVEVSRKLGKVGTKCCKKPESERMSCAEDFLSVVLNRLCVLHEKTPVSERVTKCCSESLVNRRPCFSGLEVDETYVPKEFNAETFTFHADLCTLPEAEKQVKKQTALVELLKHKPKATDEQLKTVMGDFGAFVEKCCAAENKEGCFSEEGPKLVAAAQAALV

LC-biotin-OPh-CO-FlYEE-NH2
lysine residue of HSA where LC-biotin is attached [1]: Lys519

HO-Ph-CO-FlYEE-NH2 ({Benzoyl(4-OH)}-F[dL]YEE-NH2) [leaving group liberated from biotin-OPh-CO-FlYEE-NH2]
direct competition with biotin-OPh-CO-FlYEE-NH2 for HSA (FIG. 8) ([2]; 0-100 molar excess, 44 μM biotin-OPh-CO-FlYEE-NH2, 15 μM HSA, 1 h at 37° C.): occupies a specific binding site on HSA
effect of prior incubation with HSA on binding of biotin-OPh-CO-FlYEE-NH2 (FIG. 9) ([2]; 0 to 50 molar excess incubated with 15 μM HSA for 1 h, then 44 μM biotin-OPh-CO-FlYEE-NH2 1 h at 37° C.): prevents binding of biotin-OPh-CO-FlYEE-NH2
effect of competition on rate of reaction ([2]; between 1 to 5 molar excess of HO-Ph-CO-FlYEE-NH2): very minor effect on the rate of reaction

CC(C)C[C@@H](NC(=O)[C@H](Cc1ccccc1)NC(=O)c1ccc(OC(=O)CCCC[C@@H]2SC[C@@H]3NC(=O)N[C@@H]32)cc1)C(=O)N[C@@H](Cc1ccc(O)cc1)C(=O)N[C@@H](CCC(=O)O)C(=O)N[C@@H](CCC(=O)O)C(N)=O [biotin-OPh-CO-FlYEE-NH2] (X1-F[dL]YEE-NH2)
specificity of labeling for pig albumin (immunoblot) [3]: not for pig or dog albumin
specificity of labeling for dog albumin (immunoblot) [4]: not for pig or dog albumin
rate of biotin addition (optical density vs time, FIG. 10) [5]: accelerated rate of biotin addition
half-reaction [6]: about 125 min
half-reaction [7]: about 6 min
portion reacted with protein target ([7]; after five minutes (FIG. 12)): more than half
half-life [8]: ~173 h

biotin-OPh-CO—NH2 [reference compound]
rate of biotin addition (optical density vs time, FIG. 10) [5]: on the base line
half-reaction [6]: about 330 min
selectivity of labeling (immunoblot, FIG. 7) [9]: does not label selectively
